For series [1], the system named is Mnk1/2. Put plainly: Western blot of p38-MAPK phosphorylation in MCF-10A cells treated with Mnk1/2 kinase inhibitor. Format: cell-based, human. The note with it: CGP 57380 for 4 h, FIG. 8G. As to the method:
(A) Cell lines from breast immortal or cancer (MCF-7, MDA-MB-231, SUM-149, SUM-159, MDA-MB-468) cell lines were seeded in 6-well plates and 24 h later were lysed and subjected to Western blot analysis with the indicated antibodies. (B-C) Quantitation of p38 and eIF4E phosphorylation levels. The level of phosphorylated p38 and eIF4E was normalized to that of their total level. Results are presented as an average±SD (n=2). (D-F) Immortal MEFs from WT (Mnk 1/2 WT), Mnk1^−/− or Mnk2^−/− mice were seeded in 6-well plates. 24 h later cells were either treated with the vehicle (DMSO) or treated with the Mnk1/2 kinase inhibitor, CGP 57380 (CGP) at the indicated concentrations for 4 h, and subjected to Western blot analysis with the indicated antibodies. (G) MCF-10A cells were seeded in 6-well plates, treated and analyzed as in (D). […] C-myc (nuclear) and caspase-2 (cytoplasmic) served as fractionation controls.
A general note: Immunoblotting shows a protein as a band on a membrane.

In series [2] the test system is Mnk1/2. Put plainly: Western blot of p38-MAPK phosphorylation in MEFs treated with Mnk1/2 kinase inhibitor. Type of series: cell-based, mouse. The note with it: CGP 57380 for 4 h, FIG. 5E. From the text: (A) MCF-10A cells were transduced with the indicated retroviruses encoding for Mnk2 isoforms or Mnk2aKD. Total protein from stable pools was extracted and separated on SDS-PAGE and was subjected to Western blot analysis with the indicated antibodies. Numbers represent ratio of p-p38/total p38 normalized to that of pBABE (arbitrarily set at 1)±SD (n=2). (B) MCF-10A cells described in (A) were transduced by H-RAS^V12 and after selection cells were lysed and subjected to Western blot analysis with the indicated antibodies. Numbers representing ratio of p-p38/total p38 were calculated as described in (A) (n=2). (C) Immortal MEFs from Mnk2^−/− mouse were transduced with retrovirus encoding either no mammalian protein (pBABE) or various Mnk2 variants. […] (D) Immortal MEFs from WT, Mnk1^−/− or Mnk2^−/− mice were lysed and analyzed as in (A). (E) Immortal MEFs described in (D) were seeded in 6-well plates. […]
(A) Cell lines from breast immortal or cancer (MCF-7, MDA-MB-231, SUM-149, SUM-159, MDA-MB-468) cell lines were seeded in 6-well plates and 24 h later were lysed and subjected to Western blot analysis with the indicated antibodies. (B-C) Quantitation of p38 and eIF4E phosphorylation levels. […] (G) MCF-10A cells were seeded in 6-well plates, treated and analyzed as in (D). […]

Series [3] concerns Mnk1/2. Put plainly: Q-RT-PCR of p38α target genes FOS and COX-2 in MCF-10A cells. Type of series: cell-based, human. The note with it: serum starved, CGP 57380 for 8-10 h, FIG. 7E. As to the method: (C). RNA from WT MEFs, Mnk2^−/− MEFS and Mnk2^−/− MEFS transduced with Mnk2a was extracted and the levels of FOS and COX-2 were analyzed by Q-RT-PCR. (D). RNA from MCF-10A cells transduced with the indicated Mnk2 isoforms and the indicated Mnk2a mutants was extracted and the levels of FOS and COX-2 were measured as described above. (E). MCF-10A cells were seeded in 10 cm plates. 24 h later, cells were serum starved for an additional 24 h, then treated with Mnk1/2 inhibitor CGP 57380 at the indicated concentrations for 8-10 h. RNA from cells was extracted and the levels of p38α-targets genes; FOS and COX-2 were measured by Q-RT-PCR as described above. (F). MCF-10A cells described in (D) were serum starved for 24 h and then treated with 0.5 μM anisomycin for 24 h and were subjected to trypan-blue exclusion assay (Graph). Bottom panel: cells described in (F) were centrifuged and lysed with Laemmli buffer and proteins were subjected to Western blot analysis. […]
Q-RT-PCR: Total RNA was extracted with Tri reagent (Sigma) and 2 μg of total RNA was reverse transcribed using the AffinityScript (Stratagene) reverse transcriptase. The mRNA levels of FOS, and COX-2 were determined in MCF-10A breast cell lines by performing quantitative PCR with SYBER Green (SYBR® Premix Ex Taq™ # RR041A) using the CFX96 (Bio-Rad) machine. […]

The subject of series [4] is Ras-transformed MCF-10A breast cells. Put plainly: Colony survival of Ras-transformed MCF-10A cells after PNA incubation. Format: cell-based, human. The note with it: 0.05 μM PNA for 5 hours, seeded 20 cells/well, colonies counted 14 days later, versus scrambled PNA. As to the method: (§1) FIGS. 36A-C. […] Ras-transformed MCF-10A cells were incubated for 5 hours with 0.05 μM scrambled (non-specific) PNA or MNK2a specific PNA (see the position of the PNA marked in red in the scheme). 24 h later cells were counted and seeded in low density (20 cells/well) in 6-well plates. 14 days later, surviving colonies were counted and photographed.

In another series the test system is Mnk2 splicing. The series can be described thus: RT-PCR of Mnk2 splicing after PNA treatment. Type of series: cell-based, human. The note with it: Ras-transformed MCF-10A cells, FIG. 36C. The procedure:
as §1
RT-PCR: Total RNA was extracted with Tri reagent (Sigma) and 2 μg of total RNA was reverse transcribed using the AffinityScript (Stratagene) reverse transcriptase. PCR was performed on 1/10 (2 μl) of the cDNA, in 50 μl reactions containing 0.2 mM dNTP mix, 10×PCR buffer with 15 mM MgCl2 (ABI), 2.5 units of TaqGold (ABI) and 0.2 […]; 5% (v/v) DMSO was included in some reactions. PCR conditions were 95° C. for 5 min, then 33 cycles of 94° C. for 30 s, 57° C. for 30 s and 72° C. for 45 s, followed by 10 min at 72° C. PCR products were separated on 1.5% or 2% agarose gels. Primers are listed herein below.

Series [5] concerns MCF-10A cells. Put plainly: Soft agar colony formation of MCF-10A cells co-transduced with Mnk2a and oncogenic Ras. The note with it: H-RAS V12, colonies counted 14 days later, FIGS. 4F-G. Format: cell-based, human. The procedure:
(§2) (C-D). […] (*, **, ***p≦0.01n=3).
Anchorage-independent growth: Colony formation in soft agar was assayed as described previously (17). Plates were incubated at 37° C. and 5% CO2. After 10-18 days, colonies were counted from ten different fields in each of two wells for each transductant pool and the average number of colonies per well was calculated. The colonies were stained and photographed under a light microscope at 100× magnification.

A further series relates to p38. The note with it: MCF-10A, 1 μM anisomycin, 10 μM SB203580, FIG. 4E.
The test system of series [6] is MCF-10A cells. The series can be described thus: Cell death induced by constitutively active p38α in MCF-10A cells expressing Mnk2a. Type of series: cell-based, human. The note with it: 20 μM SB203580 for 48 hours, FIGS. 4A-B.
From the text: as §2

The test system of another series is Panc-1 cells. Put plainly: Anisomycin-induced cell death of Panc-1 cells expressing Mnk2a, with or without p38 inhibitor. Type of series: cell-based, human. The note with it: Panc-1, 0.5 μM anisomycin, 20 μM SB203580, FIG. 5J. The procedure: After selection with hygromycin transductants were maintained in growth factor-free medium in suspension for 48 h. Cell death was measured using the trypan blue exclusion assay. (J) Human pancreatic cancer cells Panc-1 were seeded on 96-well plates (6000 cells/well). Following starvation cells were treated with 0.5 μM anisomycin in the presence or absence of 20 μM SB203580. (*, **p≦0.01). (K) MCF-10A cells were transduced as in (I). After selection cells were seeded in 6-well plates. 24 h later cells were serum starved in a growth factor-free medium for 24 h. Following starvation cells were treated with 0.5 M Sorbitol (to induce osmotic shock) and 24 h later were stained with trypan blue (n=2). (L) MCF-10A transduced with the indicated retroviruses encoding for shRNAs against Mnk2a were seeded as in (K). (*, p≦0.01, ** p≦0.05). […] 10 days post selection with hygromycin cells were assessed for colony formation with methylene blue staining. n=3. […]
Survival and apoptosis assays: MCF-10A or Panc-1 cells were transduced with the indicated retroviruses. […] Cells were fixed and stained with methylene blue and the absorbance at 650 nm of the acid-extracted stain was measured on a plate reader (BioRad) and was normalized to cell absorbance at “Time 0”. […] 10 μl of the cell suspension was mixed with 10 μl of 4% trypan blue solution and live/dead cells were counted in Bio-Rad TC-10 Automated Cell Counter. […]

Entries after “also recorded” stand apart in the source; their conditions may differ.

With `Nc1ncnc2n[nH]c(Nc3ccc(F)cc3)c12` [CGP 57380], the “p38-MAPK phosphorylation in MCF-10A cells” value with Mnk1/2 [1] is “reduced p38-MAPK phosphorylation”. Also, the “p38 phosphorylation in Mnk2-/- MEFs” value in the series on Mnk1/2 [2] (Mnk2-/- MEFs, FIG. 8D-F) is on record as “could not be further reduced”. Moreover, the “p38-MAPK phosphorylation (T180, Y182) in WT and Mnk1-/- MEFs” value in the series with Mnk1/2 [2] (WT and Mnk1-/- MEFs) is listed as “reduced p38-MAPK phosphorylation”. Besides, in the series on Mnk1/2 [3], the “expression of p38-MAPK target genes (FOS, COX-2)” value is listed as “reduced the expression p38-MAPK target genes”.
Turning to “PNA: PNA based molecule hybridizing to the bridging region between exon 14b and the preceding intron, preventing Mnk2b generation; likely SEQ ID NO: 157 (AGACTTCCACCCTGTCAG; PNA modified oligonucleotide, pattern not given here)”, the “survival of Ras-transformed MCF-10A breast cells (surviving colonies)” value in [4] is given as “reduces survival; also recorded: decreased the survival”. Also, the “Mnk2 splicing (Mnk2a level) by RT-PCR” value with Mnk2 splicing is given as “can modulate Mnk2 splicing to elevate Mnk2a”.
Turning to `C[S+]([O-])c1ccc(-c2nc(-c3ccncc3)c(-c3ccc(F)cc3)[nH]2)cc1` (stereo not shown) [SB203580], in the series on MCF-10A cells [5], the “colony formation in soft agar of cells co-transduced with Mnk2a and Ras” value was “rescued the ability of cells co-transduced with Mnk2a and Ras to form colonies in soft agar”. In addition, the “p38 activity measured by phosphorylation of its substrate MK-2” value in the series on p38 was “efficiently inhibited p38 activity”. Also, the “cell death upon active p38-MAPK transduction in cells expressing Mnk2a” value with MCF-10A cells [6] is “inhibited by SB203580”. Further, in the series with Panc-1 cells, the “anisomycin-induced cell death of cells expressing Mnk2a” value is “partially rescued; also recorded: rescued Panc-1 cells from Mnk2a-induced sensitivity to anisomycin treatment”.
